{"source": "patent US20050112573A1", "about": "“Method of detecting toxic substance” (priority 2001, published 2005)", "system": "yeast genes (level of expressed mRNA)", "assay": "DNA chip analysis of expressed mRNA of yeast genes after 2 h culture with a toxic chemical substance", "format": "cell-based, Saccharomyces cerevisiae S288C", "experimental": "Yeast (Saccharomyces cerevtisiae S288C (α SUC2mal mel gap2 CUP1)) were cultured at 25° C. on YPD medium (yeast extract 1%, polypepton 2%, glucose 2%). One of toxic chemical substances was added to the cell at logarithmic growth phase, and the cell was further cultured for two hours. Cell was cultured without any chemical substance in the same condition, and was used as control. Concentrations of the chemical substances were defined to inhibit the growth of the yeast but not lead to death.\nAfter the completion of cultivation, the culture was centrifuged to collect the cells. To the cells, sodium acetate buffer (50 mM sodium acetate, 10 mM EDTA, 1% SDS) was added, and the mixture was shaken at 65° C. for five minutes, followed by returning to room temperature, and obtaining the supernatant, which procedure was repeated two times. To the supernatant, ½ amount of a solution of phenol/chloroform was added, and the mixture was centrifuged to give a supernatant, which was added with an equal amount of chloroform, and the mixture was centrifuged to give a supernatant. To the supernatant, an equal amount of isopropanol containing 0.3 M sodium acetate was added, and the mixture was allowed to stand at room temperature for 30 minutes, after which the mixture was centrifuged to give a sediment of the whole RNAs. Seventy % ethanol was added to the sediment, and the mixture was again centrifuged to give a sediment, which was then dried and dissolved in water. mRNA was isolated from the whole RNAs as followings. In view of the fact that a poly A chain is attached to the 3′ terminus of mRNA, a polynucleotide having a poly T structure which was immobilized on the surface of latex beads was used to trap the mRNA, and then the mRNA was washed and eluted with spine column (Oligotex-dT30<Super>mRNA Purification Kit, Takara). Reverse transcription of the mRNA was conducted with a reverse transcriptase (Super Script II Reverse Transcriptase; catalogue No. 18064-014, GibcoBRL) using fluorescence-labeled nucleotides to give cDNAs that were introduced with Cy3-dUTP or Cy5-dUTP during the reverse transcription.\nThe labeled cDNAs were dissolved in TE buffer (10 mM Tris-HCl/1 mM EDTA, pH8.0), and the solution was dropped on the DNA chip containing the whole genes of yeast (DNA Chip Research Inc. Japan) so that the cDNAs were hybridized on the DNA chip at 65° C. for over 12 hours. The fluoresces intensity of the DNA chip was read with a scanner, and the ratio relative to the fluorescence intensity resulting from the absence of chemical substance was estimated as the following, which is shown in Tables 1 to 9: [formula]\nIn the Tables, “Intensity” indicated in the rightmost column is a value of the level of expressed mRNA of each gene in control cells as divided by the average level of the expressions of the whole genes."}
{"smiles": "CCCCCCCCCCCCOS(=O)(=O)[O-].[Na+]", "note": "[(18), sodium lauryl sulfate]", "values": [{"measurement": "The level of expressed mRNA in the presence of chemical substance/absence: YML041C", "setting": "gene YML041C", "value": 1.3}, {"measurement": "The level of expressed mRNA in the presence of chemical substance/absence: YML079W", "setting": "gene YML079W", "value": 1.4}, {"measurement": "level of expressed mRNA in the presence of chemical substance/in its absence", "setting": "gene YML110C", "value": 1.6}, {"measurement": "The level of expressed mRNA in the presence of chemical substance/absence: YML118W", "setting": "gene YML118W", "value": 1.5}, {"measurement": "The level of expressed mRNA in the presence of chemical substance/absence: YMR068W", "setting": "gene YMR068W", "value": 1.1}, {"measurement": "The level of expressed mRNA in the presence of chemical substance/absence: YMR071C", "setting": "gene YMR071C", "value": 1.9}, {"measurement": "level of expressed mRNA in the presence of chemical substance/in its absence", "setting": "gene YMR105C", "value": 2.6}, {"measurement": "The level of expressed mRNA in the presence of chemical substance/absence: YMR114C", "setting": "gene YMR114C", "value": 1.3}, {"measurement": "The level of expressed mRNA in the presence of chemical substance/absence: YMR115W", "setting": "gene YMR115W", "value": 1.2}, {"measurement": "The level of expressed mRNA in the presence of chemical substance/absence: YMR160W", "setting": "gene YMR160W", "value": 1.3}, {"measurement": "level of expressed mRNA in the presence of chemical substance/in its absence", "setting": "gene YMR189W", "value": 0.8}, {"measurement": "The level of expressed mRNA in the presence of chemical substance/absence: YMR258C", "setting": "gene YMR258C", "value": 1.3}, {"measurement": "level of expressed mRNA in the presence of chemical substance/in its absence", "setting": "gene YMR271C", "value": 2.2}, {"measurement": "level of expressed mRNA in the presence of chemical substance/in its absence", "setting": "gene YMR272C", "value": 1.4}, {"measurement": "level of expressed mRNA in the presence of chemical substance/in its absence", "setting": "gene YMR296C", "value": 0.7}, {"measurement": "level of expressed mRNA in the presence of chemical substance/in its absence", "setting": "gene YNL012W", "value": 1.5}, {"measurement": "The level of expressed mRNA in the presence of chemical substance/absence: YNL026W", "setting": "gene YNL026W", "value": 1.4}, {"measurement": "level of expressed mRNA in the presence of chemical substance/in its absence", "setting": "gene YNL037C", "value": 1.3}, {"measurement": "level of expressed mRNA in the presence of chemical substance/in its absence", "setting": "gene YNL045W", "value": 1.1}, {"measurement": "The level of expressed mRNA in the presence of chemical substance/absence: YNL058C", "setting": "gene YNL058C", "value": 1.0}, {"measurement": "The level of expressed mRNA in the presence of chemical substance/absence: YNL063W", "setting": "gene YNL063W", "value": 1.0}, {"measurement": "level of expressed mRNA in the presence of chemical substance/in its absence", "setting": "gene YNL104C", "value": 0.9}, {"measurement": "level of expressed mRNA in the presence of chemical substance/in its absence", "setting": "gene YNL106C", "value": 0.9}, {"measurement": "level of expressed mRNA in the presence of chemical substance/in its absence", "setting": "gene YNL130C", "value": 1.2}, {"measurement": "level of expressed mRNA in the presence of chemical substance/in its absence", "setting": "gene YNL169C", "value": 1.3}, {"measurement": "The level of expressed mRNA in the presence of chemical substance/absence: YNL176C", "setting": "gene YNL176C", "value": 0.8}, {"measurement": "The level of expressed mRNA in the presence of chemical substance/absence: YNL181W", "setting": "gene YNL181W", "value": 1.3}, {"measurement": "The level of expressed mRNA in the presence of chemical substance/absence: YNL191W", "setting": "gene YNL191W", "value": 0.6}, {"measurement": "The level of expressed mRNA in the presence of chemical substance/absence: YNL194C", "setting": "gene YNL194C", "value": 2.4}, {"measurement": "The level of expressed mRNA in the presence of chemical substance/absence: YNL200C", "setting": "gene YNL200C", "value": 0.9}, {"measurement": "The level of expressed mRNA in the presence of chemical substance/absence: YNL212W", "setting": "gene YNL212W", "value": 1.2}, {"measurement": "level of expressed mRNA in the presence of chemical substance/in its absence", "setting": "gene YNL231C", "value": 4.0}, {"measurement": "The level of expressed mRNA in the presence of chemical substance/absence: YNL253W", "setting": "gene YNL253W", "value": 1.2}, {"measurement": "The level of expressed mRNA in the presence of chemical substance/absence: YNL265C", "setting": "gene YNL265C", "value": 1.8}, {"measurement": "The level of expressed mRNA in the presence of chemical substance/absence: YNL276C", "setting": "gene YNL276C", "value": 0.8}, {"measurement": "level of expressed mRNA in the presence of chemical substance/in its absence", "setting": "gene YNL322C", "value": 1.0}, {"measurement": "level of expressed mRNA in the presence of chemical substance/in its absence", "setting": "gene YNR002C", "value": 2.1}, {"measurement": "level of expressed mRNA in the presence of chemical substance/in its absence", "setting": "gene YNR019W", "value": 2.0}, {"measurement": "level of expressed mRNA in the presence of chemical substance/in its absence", "setting": "gene YNR033W", "value": 1.1}, {"measurement": "The level of expressed mRNA in the presence of chemical substance/absence: YNR051C", "setting": "gene YNR051C", "value": 0.8}, {"measurement": "level of expressed mRNA in the presence of chemical substance/in its absence", "setting": "gene YNR059W", "value": 2.2}, {"measurement": "The level of expressed mRNA in the presence of chemical substance/absence: YOL026C", "setting": "gene YOL026C", "value": 1.4}, {"measurement": "The level of expressed mRNA in the presence of chemical substance/absence: YOL030W", "setting": "gene YOL030W", "value": 1.0}, {"measurement": "level of expressed mRNA in the presence of chemical substance/in its absence", "setting": "gene YOL058W", "value": 0.8}, {"measurement": "level of expressed mRNA in the presence of chemical substance/in its absence", "setting": "gene YOL126C", "value": 2.4}, {"measurement": "level of expressed mRNA in the presence of chemical substance/in its absence", "setting": "gene YOL143C", "value": 1.4}, {"measurement": "level of expressed mRNA in the presence of chemical substance/in its absence", "setting": "gene YOL153C", "value": 1.7}, {"measurement": "level of expressed mRNA in the presence of chemical substance/in its absence", "setting": "gene YOL157C", "value": 1.3}, {"measurement": "The level of expressed mRNA in the presence of chemical substance/absence: YOR022C", "setting": "gene YOR022C", "value": 1.1}, {"measurement": "The level of expressed mRNA in the presence of chemical substance/absence: YOR087W", "setting": "gene YOR087W", "value": 1.1}, {"measurement": "The level of expressed mRNA in the presence of chemical substance/absence: YOR088W", "setting": "gene YOR088W", "value": 0.7}, {"measurement": "level of expressed mRNA in the presence of chemical substance/in its absence", "setting": "gene YOR099W", "value": 2.3}, {"measurement": "level of expressed mRNA in the presence of chemical substance/in its absence", "setting": "gene YOR130C", "value": 1.1}, {"measurement": "level of expressed mRNA in the presence of chemical substance/in its absence", "setting": "gene YOR136W", "value": 1.3}, {"measurement": "The level of expressed mRNA in the presence of chemical substance/absence: YOR138C", "setting": "gene YOR138C", "value": 1.1}, {"measurement": "The level of expressed mRNA in the presence of chemical substance/absence: YOR155C", "setting": "gene YOR155C", "value": 0.9}, {"measurement": "The level of expressed mRNA in the presence of chemical substance/absence: YOR253W", "setting": "gene YOR253W", "value": 0.9}]}
